Assay [1] has as its target Aurora kinase B (Homo sapiens) (UniProt Q96GD4). Briefly: Inhibition of AURKB in human RPE cells over expressing H2B-GFP-fused MYC assessed as reduction in phosphorylation at Ser10 residues at 200 nM using histone H3 as substrate measured after 6 hrs by immunofluorescence assay. The format is cell-based.
Assay [2] relates to NCI-N87. Description: Cytotoxicity against human NCI-N87 cells assessed as reduction in cell viability measured after 6 days by MTT assay. The following applies: time 6.0 day. The format is functional, cell-based. In general terms: Tetrazolium assays rely on reduction of a dye to a coloured formazan, in cell work by metabolically active cells.
The test system of the next assay is Calu-6. Description: Cytotoxicity against human Calu-6 cells assessed as reduction in cell viability measured after 6 days by MTT assay. The format is functional, cell-based. The following applies: time 6.0 day.
Assay [3] in a line: Induction of mitotic arrest in human RPE cells over expressing H2B-GFP-fused MYC assessed as minimum effective concentration for polyploidy measured after 24 to 72 hrs by fluorescence microscopy. In kind it is functional. To be noted: time 24-72 hrs, read-out: MEC.
In assay [4] the test system is DU-145. Description: Cytotoxicity against human DU-145 cells assessed as reduction in cell viability measured after 6 days by MTT assay. To be noted: time 6.0 day. In kind it is functional, cell-based.
In assay [5] the test system is MDA-MB-231. Description: Cytotoxicity against human MDA-MB-231 cells assessed as reduction in cell proliferation at 10 uM measured after 3 days by MTT assay. To be noted: time 3.0 day. In kind it is functional, cell-based.
Assay [6] concerns NCI-N87. Briefly: Cytotoxicity against human NCI-N87 cells assessed as reduction in cell proliferation at 10 uM measured after 3 days by MTT assay. In kind it is functional, cell-based. The following applies: time 3.0 day.
The next assay relates to NCI-H596. Briefly: Cytotoxicity against human NCI-H596 cells assessed as reduction in cell viability measured after 6 days by MTT assay. The format is functional, cell-based. To be noted: time 6.0 day.
For another assay, the system named is NCI-H460. Briefly: Cytotoxicity against human NCI-H460 cells assessed as reduction in cell viability measured after 6 days by MTT assay. The format is functional, cell-based. To be noted: time 6.0 day.
Assay [7] in a line: Induction of mitotic arrest in human RPE cells over expressing H2B-GFP-fused MYC assessed as increase in polyploidy at 40 uM measured after 24 to 72 hrs by fluorescence microscopy. The format is functional. The following applies: time 24-72 hrs.
Assay [8] has as its system NCI-H23. Briefly: Cytotoxicity against human NCI-H23 cells assessed as reduction in cell viability measured after 6 days by MTT assay. The format is functional, cell-based. The following applies: time 6.0 day.
In assay [9] the test system is MDA-MB-231. Briefly: Cytotoxicity against human MDA-MB-231 cells assessed as reduction in cell viability measured after 6 days by MTT assay. The format is functional, cell-based. The following applies: time 6.0 day.
The test system of assay [10] is HCT-116. Briefly: Cytotoxicity against human HCT-116 cells assessed as reduction in cell viability measured after 6 days by MTT assay. The format is functional, cell-based. The following applies: time 6.0 day.
In assay [11] the test system is NCI-H23. Briefly: Cytotoxicity against human NCI-H23 cells assessed as reduction in cell proliferation at 10 uM measured after 3 days by MTT assay. In kind it is functional, cell-based. To be noted: time 3.0 day.
Assay [12] concerns HCT-116. Briefly: Cytotoxicity against human HCT-116 cells assessed as reduction in cell proliferation at 10 uM measured after 3 days by MTT assay. The format is functional, cell-based. To be noted: time 3.0 day.
The test system of the next assay is A549. Description: Cytotoxicity against human A549 cells assessed as reduction in cell viability measured after 6 days by MTT assay. The format is functional, cell-based. To be noted: time 6.0 day.
The test system of assay [13] is DU-145. Briefly: Cytotoxicity against human DU-145 cells assessed as reduction in cell proliferation at 10 uM measured after 3 days by MTT assay. The format is functional, cell-based. To be noted: time 3.0 day.
Assay [14] can be described thus: Induction of mitotic arrest in human RPE cells over expressing H2B-GFP-fused MYC assessed as minimum effective concentration for polyploidy measured after 24 hrs by fluorescence microscopy. The format is functional. To be noted: read-out: MEC.
The nature of assay [15]: Induction of mitotic arrest in human RPE cells over expressing H2B-GFP-fused MYC assessed as polyploidy cells in the interphase cell population at 40 uM measured after 72 hrs by fluorescence microscopy relative to control. The format is functional.
In assay [16] the target is T1, Aurora kinase A (Homo sapiens) (UniProt O14965).
T1 sequence (whole entry): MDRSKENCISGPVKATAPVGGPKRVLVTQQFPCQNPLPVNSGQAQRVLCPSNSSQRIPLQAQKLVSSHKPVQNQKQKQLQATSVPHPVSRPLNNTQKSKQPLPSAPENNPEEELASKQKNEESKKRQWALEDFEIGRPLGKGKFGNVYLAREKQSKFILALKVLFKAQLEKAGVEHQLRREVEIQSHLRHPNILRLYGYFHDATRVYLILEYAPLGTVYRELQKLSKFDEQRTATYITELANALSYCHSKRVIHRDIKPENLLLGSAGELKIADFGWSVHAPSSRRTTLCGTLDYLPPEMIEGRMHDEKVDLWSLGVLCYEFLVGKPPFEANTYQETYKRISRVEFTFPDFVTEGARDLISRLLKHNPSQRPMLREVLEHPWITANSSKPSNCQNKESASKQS
Briefly: Inhibition of AURKA in human RPE cells over expressing H2B-GFP-fused MYC assessed as reduction in autophosphorylation at Thr288 residues at 0.64 uM measured after 6 hrs by immunofluorescence assay. The format is cell-based.

Consider 4 molecules from ChEMBL document CHEMBL5120932, “Discovery and Optimization of Seven-Membered Lactam-Based Compounds to Phenocopy the Inhibition of the Aurora Kinase B” (ACS Med Chem Lett, 2022).

Active and inactive are the calls of the source. No cut-off for these calls is given here.

Sequence of Aurora kinase B (Homo sapiens) (Q96GD4 whole entry, the tested form may be a part): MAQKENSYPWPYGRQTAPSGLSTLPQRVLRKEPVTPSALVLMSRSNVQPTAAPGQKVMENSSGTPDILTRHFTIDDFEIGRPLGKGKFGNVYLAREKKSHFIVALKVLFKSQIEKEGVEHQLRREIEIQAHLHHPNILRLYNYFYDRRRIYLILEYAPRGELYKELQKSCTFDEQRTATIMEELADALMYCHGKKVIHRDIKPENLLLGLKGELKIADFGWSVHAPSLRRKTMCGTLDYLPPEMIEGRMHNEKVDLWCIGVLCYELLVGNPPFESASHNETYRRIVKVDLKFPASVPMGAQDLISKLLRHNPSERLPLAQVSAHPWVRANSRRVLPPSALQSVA

On to `CCN(CCO)CCCOc1ccc2c(Nc3cc(CC(=O)Nc4cccc(F)c4)[nH]n3)ncnc2c1`, for which the inhibition entry in assay [1] was “Active”.
Turning to `COC(=O)C1=C(O)c2ccccc2N(Cc2ccc(C)c(F)c2)C(=O)C1`, the outcome in the assay with NCI-N87 [2], in the assay with Calu-6, in the assay with DU-145 [4], with MDA-MB-231 [5], in the assay with NCI-N87 [6] and with NCI-H596 was Active. Moreover, the result with NCI-H460, with NCI-H23 [8], with MDA-MB-231 [9], in the assay on HCT-116 [10], in the assay on NCI-H23 [11] and in the assay on HCT-116 [12] was Active. In addition, the outcome with A549 and in the assay with DU-145 [13] was Active. Moreover, in assay [3], the minimal effective concentration is 0.019 µM. Moreover, the Activity in assay [7] came to 30%.
`COC(=O)C1=C(O)c2ccccc2NC(=O)C1`: the minimal effective concentration in assay [14] was 40 µM. Also, the Activity in [15] turned out to be 50%.
As to `COC(=O)C1=C(O)c2ccccc2N(Cc2ccc(OC)c(F)c2)C(=O)C1`, the outcome in the assay on NCI-N87 [2], with Calu-6, in the assay on DU-145 [4], with MDA-MB-231 [5], in the assay on NCI-N87 [6] and with NCI-H596 was Active. Besides, the result in the assay on NCI-H460, in the assay with NCI-H23 [8], in the assay with MDA-MB-231 [9], in the assay on HCT-116 [10], with NCI-H23 [11] and in the assay with HCT-116 [12] was Active. Besides, the result in the assay with A549 and in the assay with DU-145 [13] was Active. For the same molecule, in assay [3], the minimal effective concentration is 0.039 µM. The Activity in assay [7] is on record as 70%. In addition, the inhibition entry in assay [16] was “Active”.
